Assay results taken from ChEMBL document CHEMBL2375245, “Virtual medicinal chemistry: in silico pre-docking functional group transformation for discovery of novel inhibitors of botulinum toxin serotype A light chain” (Bioorg Med Chem Lett, 2013).

Experiments:
[1] = molecular target: T1, Botulinum neurotoxin type A (Clostridium botulinum, UniProt P0DPI0); test: Inhibition of Clostridium botulinum BoNT/A light chain (1 to 429 amino acid) using Abz-Thr-dArg-Ile-Asp-Glu-Ala-Asn-Gln-Arg-Ala-Thr-Lys-Nle-Lys(Dnp)-NH2 as substrate after 10 mins by FRET assay
T1 sequence (P0DPI0 2-448 limits assumed): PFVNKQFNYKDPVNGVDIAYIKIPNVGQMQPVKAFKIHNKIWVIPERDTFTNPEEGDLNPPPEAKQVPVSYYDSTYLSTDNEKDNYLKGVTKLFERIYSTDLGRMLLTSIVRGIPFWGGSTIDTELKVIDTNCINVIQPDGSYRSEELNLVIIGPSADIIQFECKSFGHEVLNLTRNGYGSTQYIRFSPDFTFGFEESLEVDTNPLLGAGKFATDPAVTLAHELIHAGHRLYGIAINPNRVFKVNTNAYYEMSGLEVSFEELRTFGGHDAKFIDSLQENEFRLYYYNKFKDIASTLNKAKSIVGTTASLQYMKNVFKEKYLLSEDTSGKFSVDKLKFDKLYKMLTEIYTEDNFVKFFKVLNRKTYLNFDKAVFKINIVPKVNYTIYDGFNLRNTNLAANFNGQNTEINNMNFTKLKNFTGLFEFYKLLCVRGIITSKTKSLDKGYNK

[2] = molecular target: T1, Botulinum neurotoxin type A

SMILES | Ki [1] | Ki [2]
O=C(NC(Cc1c[nH]c2ccccc12)C(=O)NO)c1ccco1 (stereo not given) | > 300 µM | 
NC(=O)C1CC(C(=O)NO)=NN1c1ccccc1 (stereo not given) | > 300 µM | 
Cc1nnc(SCC(=O)NO)n1Cc1ccccc1 | > 300 µM | 
O=C(NC(Cc1ccccc1)C(=O)NO)C1CCCCC1 (stereo not given) | > 300 µM | 
COc1ccc(CN2CCNC(=O)C2CC(=O)NO)cc1OC (stereo not given) | > 300 µM | 
O=C(NC(Cc1c[nH]c2ccccc12)C(=O)NO)c1ccc(Cl)s1 (stereo not given) | > 300 µM | 
O=C(CC1C(=O)NCCN1C/C=C/c1ccccc1)NO (stereo not given) | > 300 µM | 
O=C(CN1C(=O)c2ccccc2C1c1c[nH]c2ccccc12)NO (stereo not given) | > 300 µM | 
O=C(CN(Cc1ccccc1)Cc1ccccc1)NO |  | 90 µM
O=C(NO)c1ccccc1-c1ccccc1C(=O)Nc1ccccn1 | 21 µM | 
O=C(CNC(=O)c1ccc2noc(-c3ccccc3)c2c1)NO | 77 µM | 
O=C(Cn1nc(Cc2ccccc2)c2ccccc2c1=O)NO | 93 µM | 
Cc1ccc(CN(CC(=O)NO)S(=O)(=O)c2ccccc2)cc1 | 142 µM | 
CCC(C)C(C(=O)NO)N1C(=O)c2ccccc2C1=O (stereo not given) | 188 µM | 
O=C(NC(Cc1c[nH]c2ccccc12)C(=O)NO)c1ccc(F)cc1 (stereo not given) | 212 µM | 
COc1ccccc1-c1cc(C(=O)NO)[nH]n1 | > 300 µM | 
CCCCOc1ccccc1-c1cc(C(=O)NO)[nH]n1 | > 300 µM | 
O=C(NO)c1cccc(-c2ccc(CNCC3CCCO3)o2)c1 (stereo not given) | > 300 µM | 
O=C(Cc1nc(-c2cccnc2)sc1-c1ccc(Cl)cc1)NO | > 300 µM | 
Cc1cc(C(=O)NC(Cc2c[nH]c3ccccc23)C(=O)NO)c(C)o1 (stereo not given) | > 300 µM | 
Cc1ccc(C(=O)NC(Cc2c[nH]c3ccccc23)C(=O)NO)o1 (stereo not given) | > 300 µM | 
O=C(COc1ccccc1)NC(Cc1ccccc1)C(=O)NO (stereo not given) | > 300 µM | 
Cc1ccc(OCC(=O)NC(Cc2ccccc2)C(=O)NO)cc1 (stereo not given) | > 300 µM | 
O=C(CCC(=O)N(c1ccccc1)c1ccccc1)NO | > 300 µM | 
Cc1nc(C)c(CCC(=O)NO)c(=O)[nH]1 | > 300 µM | 
Cc1nnc(SCc2ccccc2C(=O)NO)n1C | > 300 µM | 
O=C(CC1SC(N2CCCC2)=NC1=O)NO (stereo not given) | > 300 µM | 
O=C(CCN1C(=O)c2ccccc2C1c1c[nH]c2ccccc12)NO (stereo not given) | 194 µM | 
Cc1[nH]c2ccccc2c1C1c2ccccc2C(=O)N1CC(=O)NO (stereo not given) | 142 µM | 
O=C(CC1Sc2ccccc2NC1=O)NO (stereo not given) | > 300 µM | 
